Measurements: BindingDB's records for doi:10.1021/jm00095a003 (C.N.R.-Centro Studio Sostanze Organiche Naturali, 1992)

Legend:
[1] = target: T1, Muscarinic acetylcholine receptor (Cavia porcellus, UniProt Q8VH26); assay: Dissociation constant at muscarinic acetylcholine receptor M3 guinea pig bladder.
[2] = target: T1, Muscarinic acetylcholine receptor; assay: Dissociation constant at muscarinic acetylcholine receptor M3 of guinea pig ileum.
[3] = target: T1, Muscarinic acetylcholine receptor; assay: Dissociation constant at muscarinic M3 receptors of guinea pig ileum.
[4] = target: T1, Muscarinic acetylcholine receptor; assay: Dissociation constant at muscarinic M3 receptors of guinea pig bladder.

T1 sequence (Q8VH26 whole entry): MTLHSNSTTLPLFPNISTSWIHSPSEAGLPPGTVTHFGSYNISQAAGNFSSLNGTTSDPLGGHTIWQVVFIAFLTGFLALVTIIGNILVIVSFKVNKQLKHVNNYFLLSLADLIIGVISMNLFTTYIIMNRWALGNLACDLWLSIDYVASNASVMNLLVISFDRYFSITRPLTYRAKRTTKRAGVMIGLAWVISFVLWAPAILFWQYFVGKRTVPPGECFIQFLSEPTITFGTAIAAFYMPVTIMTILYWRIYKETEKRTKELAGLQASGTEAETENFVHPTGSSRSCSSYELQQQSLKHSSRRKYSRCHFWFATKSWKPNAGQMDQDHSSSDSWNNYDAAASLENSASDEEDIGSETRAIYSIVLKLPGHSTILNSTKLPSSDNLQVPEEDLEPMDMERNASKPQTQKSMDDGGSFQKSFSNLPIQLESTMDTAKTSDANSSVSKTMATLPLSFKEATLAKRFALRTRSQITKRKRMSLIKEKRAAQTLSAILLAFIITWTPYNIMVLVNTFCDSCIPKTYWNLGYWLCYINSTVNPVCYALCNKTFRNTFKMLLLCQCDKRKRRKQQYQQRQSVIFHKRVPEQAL

In the case of C[C@@H]1O[C@H](C[N+](C)(C)C)C[C@H]1O, the Kd [1] is reported as 24 µM and the Kd [2] is reported as 1.12 µM.

C[C@@H]1O[C@H](C[N+](C)(C)C)C[C@H]1F was tested, and the Kd [3] was 1.91 µM and the Kd [4] was 40.7 µM.
